What was measured:
[1] = test system: SV40-Luc; assay: SV40-Luc control luciferase reporter assay, SV 5A8 cell line (SV40-Luc and SV40-R-Luc), control for non-specific inhibitors; type: cell-based, human; settings: Homo sapiens, SV5A8, 24 h, SV 5A8 cells derived from SW480; 24 hours of incubation with compound; ratio Firefly/Renilla luciferase
Method in brief: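 Read-out is the firefly-to-Renilla luminescence ratio, expressed as % of control and averaged over duplicate plates, from which IC50s were fitted. Renilla under SV40 normalises for cell number and toxicity. SW480-derived lines carried integrated Tcf-4- or SV40-driven firefly reporters; compound exposure lasted 24 h.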

[2] = test system: β-catenin/Tcf-4; assay: cells; type: cell-based; settings: Homo sapiens, 24 hours of incubation with compound, ratio Firefly/Renilla luciferase
Method in brief: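 SW480-derived lines with integrated reporters (Tcf-4-driven firefly luciferase; SV40 firefly as specificity control; SV40 Renilla for cell number/toxicity), treated 24 hours with titrated compounds, final 0.316% DMSO. Dual-luciferase read-out; firefly/Renilla ratio as % of control, duplicate plates, IC50 (nM) from curve fit.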

[3] = SW480, 24 h, Tcf 33.13 cells derived from SW480
[4] = Tcf22C11, 24 h, Tcf 22C11 cells derived from SW480

IC50 [1]	melting point	IC50 [2, 3]	IC50 [2, 4]	Structure (SMILES)
> 2350 nM	128 °C	699 nM	798 nM	CNc1nc(NCc2ccc(NC(=O)C3CCN(Cc4ccccc4)CC3)cc2)c2ccc(C)cc2n1 [Example 130, 1-benzyl-N-[4-({[7-methyl-2-(methylamino)quinazolin-4-yl]amino}methyl)phenyl]piperidine-4-carboxamide]
> 2150 nM	55 °C	1140 nM	1390 nM	CCNc1nc(NCc2ccc(NC(=O)C3CCN(Cc4ccccc4)CC3)cc2)c2ccc(C)cc2n1 [Example 132, 1-benzyl-N-[4-({[2-(ethylamino)-7-methylquinazolin-4-yl]amino}methyl)phenyl]piperidine-4-carboxamide]
> 2400 nM	180 °C	169 nM	268 nM	C=Cc1ccc2c(NCc3ccc(NC(=O)C4CCN(Cc5ccccc5)CC4)cc3)nc(N(C)C)nc2c1 [Example 150, 1-benzyl-N-[4-({[2-(dimethylamino)-7-vinylquinazolin-4-yl]amino}methyl)phenyl]piperidine-4-carboxamide]
> 8670 nM	126 to 128 °C	706 nM	967 nM	Cc1ccc2c(NCc3ccc(NC(=O)C4CCN(Cc5ccc(C(F)(F)F)cc5)CC4)cc3)nc(N(C)C)nc2c1 [Example 256, N-[4-({[2-(dimethylamino)-7-methylquinazolin-4-yl]amino}methyl)phenyl]-1-[4-(trifluoromethyl)benzyl]piperidine-4-carboxamide]
> 21600 nM	305 to 307 °C	> 21600 nM	> 21600 nM	CNc1nc(NCc2ccc(NC(=O)c3ccc(Cl)nc3)cc2)c2cc([N+](=O)[O-])ccc2n1 [Example 184, 6-chloro-N-[4-({[2-(methylamino)-6-nitroquinazolin-4-yl]amino}methyl)phenyl]nicotinamide]

— patent US20090004185A1, “AMINO-SUBSTITUTED QUINAZOLINE DERIVATIVES AS INHIBITORS OF BETA-CATENIN/TCF-4 PATHWAY AND CANCER TREATMENT AGENTS” (WYETH, priority 2007, published 2009)
